From patent US20250352529A1, “COMBINED USE OF M1 MUSCARINIC RECEPTOR AGONISTS AND M3 MUSCARINIC RECEPTOR ANTAGONISTS TO TREAT CANCER” (The United States Government As Represented By The …, priority 2024, published 2025)
pEC50, pIC50: −log10 of the molar value. Where two headings read alike, the source gives them in different places.

How the values were obtained:
H508 CRC cells = test: LDH release cytotoxicity assay; type: cell-based, human; conditions: increasing doses of xanomeline +/− 30 or 60 μM darifenacin
Protocol: FIG. 7A-B show combining a selective M3R inhibitor (darifenacin) with an M1R-selective activator potentiates inhibition of cell proliferation without cell injury. […] Triton X-100 was the positive control for LDH release. Symbols represent means+/−SEM of 3-9 replicates.
To exclude cell toxicity with these drug concentration, cellular release of lactate dehydrogenase (LDH) was measured.
(§1) Human colon cancer cell lines (H508, HCT116) were grown in complete culture medium in a 37° C. incubator with 5% CO2 and sub-cultured weekly. H508 or HCT116 cells were seeded in 96-well plates, allowed to adhere for 24 h and changed to serum-free culture medium. Cells were treated for 5 days with Xanomeline, a selective M1R agonist, and were pre-incubated for 30 min with Darifenacin, a selective M3R antagonist or Trospium, a non-selective MR antagonist. Cell proliferation and cytotoxicity were measured using the WST-1 and LDH colorimetric assays, respectively. Absorbance was measured at 440 nm and 490/680 nm, respectively, using a computer-interfaced plate reader.

HCT116 human CRC cells = test: WST-1 cell proliferation assay, HCT116 cells; type: cell-based
Protocol: (§2) FIG. 6A) Treating H508 cells for 5 days with carbachol (carb), a non-selective muscarinic receptor agonist stimulates cell proliferation measured using the WST-1 Cell Proliferation Assay (Roche). Cont, control; Carb, carbachol. Solid black circles represent values for individual replicates. […] Cells were incubated with or without agents for 5 days. N=4. FIG. 6D). Maximal proliferation responses observed with increasing concentrations of McN-A-343 in H508 (square), HT-29 (triangle), and HCT116 (circle) human CRC cells. Cells were incubated with agents for 5 days. Dose-response curves created by nonlinear regression (GraphPad Prism).
as §1

H508 human CRC cells = test: WST-1 cell proliferation assay, H508 cells; type: cell-based; conditions: for change in cell proliferation: trospium 5-50 μM; for pIC50: Homo sapiens, read-out: half-maximal inhibitory concentration (IC50), cell proliferation; for effect of antagonist preincubation on xanomeline dose-response curve (proliferation): trospium 50 μM, darifenacin 30 and 60 μM
Protocol: as §2, §1

HT-29 human CRC cells = test: WST-1 cell proliferation assay, HT-29 cells; type: cell-based; conditions: HT-29 cells (CHRM1:3-low), 5 days; read-out: half-maximal effective concentration (EC50) for inhibition of CRC cell proliferation
Protocol: as §2

[1] = H508 cells, 5 days, agent alone
[2] = NCI-H508, 120 h, H508 cells, agent alone, 5 days

| Compound | change in cell proliferation (H508 human CRC cells; [1]) | pIC50 (H508 human CRC cells; [2]) | effect of antagonist preincubation on xanomeline dose-response curve (proliferation) (H508 human CRC cells; H508 cells) | further results |
| --- | --- | --- | --- | --- |
| CCCCCCOc1nsnc1C1=CCCN(C)C1 [xanomeline, Xanomeline] | robustly and dose-dependently attenuated cell proliferation | 4.48 | – | cell LDH leakage (H508 CRC cells): No cell LDH leakage was detected; inhibition of cell proliferation compared to H508 cells (HCT116 human CRC cells; HCT116 cells, increasing xanomeline concentrations): attenuated at lower xanomeline concentrations; pIC50 (H508 human CRC cells; NCI-H508, H508 cells, xanomeline plus 30 μM darifenacin): 4.67; pIC50 (H508 human CRC cells; NCI-H508, H508 cells, xanomeline plus 60 μM darifenacin): 4.73 |
| C[N+](C)(C)CC#CCOC(=O)Nc1cccc(Cl)c1.[Cl-] [McN-A-343] | robustly and dose-dependently attenuated cell proliferation | – | – | pEC50 (HT-29 human CRC cells): 3.26; pEC50 (HCT116 human CRC cells; HCT116 cells (CHRM1:3-high), 5 days, read-out: half-maximal effective concentration (EC50) for inhibition of CRC cell proliferation): 5.10; pEC50 (H508 human CRC cells; H508 cells (CHRM1:3-low), 5 days, read-out: half-maximal effective concentration (EC50) for inhibition of CRC cell proliferation): 3.86 |
| NC(=O)C(c1ccccc1)(c1ccccc1)[C@@H]1CCN(CCc2ccc3c(c2)CCO3)C1 [darifenacin, Darifenacin] | – | 4.08 | shifted the xanomeline dose-response curve progressively leftward | – |
| C[N+](C)(C)CCOC(N)=O [carbachol, Carbachol] | two-fold increase in cell proliferation | – | – | – |
| O=C(O[C@H]1C[C@H]2CC[C@@H](C1)[N+]21CCCC1)C(O)(c1ccccc1)c1ccccc1 [trospium, Trospium] | did not alter cell proliferation | – | did not shift | – |
